Results reported in US20230285570A1, “THERAPEUTICALLY USEFUL CURE-PRO MOLECULES FOR E3 LIGASE MEDIATED DEGRADATION OF PROTEINS, AND METHODS OF MAKING AND USING THEM” (CORNELL UNIVERSITY, priority 2020, published 2023).

Tests used:
Format in all cases: cell-based
[1] = molecular target: c-MYC (Homo sapiens, UniProt P01106); test: Summary of C-MYC degradation by CURE-PRO pairs, estimated from Western Blot or WES; design: endogenous in cells; host or cells: HT29; settings: for Degradation of C-MYC, combination with MDM2 ligand 8310: Table 11, aromatic 1,2-diol MYC ligand + 8310; for Degradation of C-MYC, combination with CRBN ligand 8046: Table 7, aryl-boronic acid MYC ligand + 8046; for Degradation of C-MYC, combination with CRBN ligand 8066: Table 7, aryl-boronic acid MYC ligand + 8066; for Degradation of C-MYC, combination with VHL ligand 8298: Table 12, aromatic 1,2-diol MYC ligand + 8298; for Degradation of C-MYC, combination with CRBN ligand 8048: Table 10, aromatic 1,2-diol MYC ligand + 8048; for Degradation of C-MYC, combination with CRBN ligand 8049: Table 10, aromatic 1,2-diol MYC ligand + 8049
Description: (§1) Namalwa, Ramosm HeLa, MCF7, or HT29 HCT116 cells (2.5-3×10^6) were treated for 24 hours with the indicated compounds solubilized in DMSO. The cells were washed in ice-cold PBS and were then lysed in RIPA lysis buffer (150 mM NaCl, 5 mM EDTA, 1% NP-40, 0.5% sodium deoxycholate, 0.1% SDS, 50 mM Tris, pH 8.0.) with Roche protease inhibitor complete cocktail and phosphatase inhibitors (10 mM sodium fluoride, 10 mM sodium pyrophosphate, 1 mM sodium orthovanadate and 20 mM β-glycerophosphate). The total protein concentrations were determined by Bradford Protein Assay (Pierce) and 10-20 μg of protein was loaded onto 4-15% Tris-Glycine gradient gels (Biorad). After standard gel electrophoresis, the separated proteins were transferred to PVDF membrane by wet transfer. The immunoblots were then blocked for 1 hour in 5% skim milk in TBST or 5% BSA in TBST, according to manufacturer's instructions, before an overnight incubation at 4° C. with indicated antibodies and membranes. Membranes were then incubated with the appropriate horseradish peroxidase-conjugated secondary antibodies (1:5,000 dilution) for 1 h at room temperature and the bands were visualized using the Clarity Max Western ECL Substrate (Biorad) and the ChemiDoc Imaging System (Biorad). Signal was detected with ECL Western Blotting Substrate (Pierce) and X-ray film processed with a Konica SRX-101 X-ray film processor or captured by Bio-Rad's Chemidoc Imaging system.
(§2) WES Simple analysis was performed on WES system (ProteinSimple-Biotechne) according to the manufacturer's instructions. Total protein concentrations of cell lysates were determined by the Pierce BCA kit (Thermo Fisher). 3 μL of 0.3 μg/μL of the protein lysate was loaded onto a 12- to 230-kDa WES assay plate (ProteinSimple) where 300 nL sample was withdrawn through a capillary, subjected to electrophoretic separation of proteins by size, and followed by the simultaneous, HRP-based detection of proteins using the Anti-Rabbit Detection Module (Proteinsimple: #DM-001). The electropherograms were checked then the automatic peak detection was manually corrected if it was required.
(§3) A black check mark indicates efficacy of 30% to 70% or higher protein degradation.

[2] = molecular target: T1, BRD4 (Homo sapiens, UniProt O60885); test: CURE-PRO-mediated BRD4 degradation in HeLa cells, Western blot; design: endogenous in cells; host or cells: HeLa; settings: 24 h
Description: All cell lines were purchased from ATCC or DSMZ and grown at 37° C. with 5% CO2. Human HeLa cells were cultured in complete growth medium (Dulbecco's modified Eagle's medium (DMEM) supplemented with 10% FBS); MCF7 cells were cultured in complete growth medium (Dulbecco's modified Eagle's medium (DMEM) supplemented with 10% FBS and 0.01 mg/ml human recombinant insulin (Sigma Aldrich); Namalwa and Ramos cells were cultured in complete growth medium (RPMI 1640 medium supplemented with 10% FBS); HCT116 and HT29 cells were cultured in complete growth medium (McCoy's 5a Medium supplemented with 10% FBS). For cellular degradation of BRD4 studies cells were seeded in a 12-well plate at 70-80% confluency, allowed to attach overnight, and incubated with the indicated compounds for the indicated time. When indicated, a 15-minute pretreatment with 10 μM pomalidomide, 10 μM VHL298, 10 μM Nutlin3a, 1 μM MG-132 or 1 μM Carfilzomib was performed before the addition of CURE-PROs. For washout studies, after CURE-PRO treatment, media was aspirated and incubated with complete medium for the indicated time before lysis.
as §1
HeLa cells (2.5×10^6) were treated for 24 hours with the sample compounds solubilized in DMSO. Compounds were added at 1-10 μM each. Standardized protein samples were electrophoresed and imaged as described in the immunoblotting description above. FIGS. 6-18 depicts the CURE-PRO-mediated BRD4 degradation for BRD monomers (JQ1 derivatives comprising of catechol linkers), and CRBN ligands, 8048 and 8049 (pomalidomide derivatives comprising boronic acid linkers) combined in a 1:1 ratio.
HeLa cells (2.5×10^6) were treated for 24 hours with the compounds solubilized in DMSO. The compounds were added at 10 μM each. Standardized protein samples were electrophoresed and imaged as described in the immunoblotting section above. FIGS. 23-27 depicts the CURE-PRO-mediated BRD4 degradation for BRD monomers (JQ1 derivatives comprising of boronic acid linkers), and CRBN ligands, 8046, 8047 and 8066 (pomalidomide derivatives comprising diol linkers) combined in a 1:1 ratio.
HeLa cells (2.5×10^6) were treated for 24 hours with the compounds solubilized in DMSO. Compounds were added at 10 μM and 100 μM each. Standardized protein samples were electrophoresed and imaged as described in the immunoblotting section above.
HeLa cells (2.5×10^6) were treated for 24 hours with the compounds solubilized in DMSO. Compounds were added at 1 nM-1 μM each. […]

[3] = molecular target: T1, BRD4; test: Summary of BRD4 degradation by CURE-PRO pairs, estimated from Western Blot or WES; design: endogenous in cells
Description: as §1, §2, §3

c-MYC, sequence (P01106 whole entry): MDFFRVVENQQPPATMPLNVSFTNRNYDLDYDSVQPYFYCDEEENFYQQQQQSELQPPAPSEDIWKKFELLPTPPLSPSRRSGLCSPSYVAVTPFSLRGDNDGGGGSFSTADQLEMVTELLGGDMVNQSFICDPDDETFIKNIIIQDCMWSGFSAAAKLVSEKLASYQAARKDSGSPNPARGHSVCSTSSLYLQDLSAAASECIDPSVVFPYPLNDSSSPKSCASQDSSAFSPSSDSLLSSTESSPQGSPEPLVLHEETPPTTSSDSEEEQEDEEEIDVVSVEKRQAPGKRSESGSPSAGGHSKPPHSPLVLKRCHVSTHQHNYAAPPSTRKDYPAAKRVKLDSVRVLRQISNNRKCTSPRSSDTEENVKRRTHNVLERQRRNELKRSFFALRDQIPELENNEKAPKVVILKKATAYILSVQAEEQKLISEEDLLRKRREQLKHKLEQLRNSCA

Compound: O=C(NCc1cccc(O)c1O)c1ccc(Nc2ccc([N+](=O)[O-])c3nonc23)cc1 [MYC- N18]
- Degradation of C-MYC, combination with MDM2 ligand 8310 [1]: √ (A black check mark indicates efficacy of 30% to 70% or higher protein degradation)

Compound: CCc1ccc(/C=C2\SC(=O)N(CCCc3cccc(B(O)O)c3)C2=O)cc1 [MYC- E02]
- Degradation of C-MYC, combination with CRBN ligand 8046 [1]: √ (A black check mark indicates efficacy of 30% to 70% or higher protein degradation)
- Degradation of C-MYC, combination with CRBN ligand 8066 [1]: √ (A black check mark indicates efficacy of 30% to 70% or higher protein degradation)

Compound: O=C(NCc1ccc(O)c(O)c1)c1ccc(Nc2ccc([N+](=O)[O-])c3nonc23)cc1 [MYC-N17]
- Degradation of C-MYC, combination with VHL ligand 8298 [1]: √ (A black check mark indicates efficacy of 30% to 70% or higher protein degradation)

Compound: O=C(NCCNC(=O)c1cccc(O)c1O)c1ccccc1Nc1ccc([N+](=O)[O-])c2nonc12 [MYC- N22]
- Degradation of C-MYC, combination with MDM2 ligand 8310 [1]: √ (A black check mark indicates efficacy of 30% to 70% or higher protein degradation)
- Degradation of C-MYC, combination with MDM2 ligand 8312 ([1]; Table 11, aromatic 1,2-diol MYC ligand + 8312): √ (A black check mark indicates efficacy of 30% to 70% or higher protein degradation)

Compound: O=C(NCc1ccc(O)c(O)c1)c1ccccc1Nc1ccc([N+](=O)[O-])c2nonc12 [MYC-N15]
- Degradation of C-MYC, combination with CRBN ligand 8048 [1]: √ (A black check mark indicates efficacy of 30% to 70% or higher protein degradation)
- Degradation of C-MYC, combination with CRBN ligand 8049 [1]: √ (A black check mark indicates efficacy of 30% to 70% or higher protein degradation)

Compound: O=[N+]([O-])c1ccc(Nc2cccc(O)c2O)c2nonc12 [MYC-N11]
- Degradation of C-MYC, combination with CRBN ligand 8048 [1]: √ (A black check mark indicates efficacy of 30% to 70% or higher protein degradation)

Compound: O=C(NCc1ccc(Cl)c(B(O)O)c1)c1ccccc1Nc1ccc([N+](=O)[O-])c2nonc12 [MYC-E18]
- Degradation of C-MYC, combination with CRBN ligand 8046 [1]: √ (A black check mark indicates efficacy of 30% to 70% or higher protein degradation)

Compound: CCc1ccc(/C=C2\SC(=O)N(CCNC(=O)c3cccc(O)c3O)C2=O)cc1 [MYC-N08]
- Degradation of C-MYC, combination with VHL ligand 8297 ([1]; Table 12, aromatic 1,2-diol MYC ligand + 8297): √ (A black check mark indicates efficacy of 30% to 70% or higher protein degradation)
- Degradation of C-MYC, combination with VHL ligand 8298 [1]: √ (A black check mark indicates efficacy of 30% to 70% or higher protein degradation)

Compound: O=C(NCCN1C(=O)C/C(=C\c2ccc(F)cc2)C1=O)[C@H]1C[C@@H]2C[C@H]1[C@@H](O)[C@H]2O [MYC-N30]
- Degradation of C-MYC, combination with CRBN ligand 8048 [1]: √ (A black check mark indicates efficacy of 30% to 70% or higher protein degradation)
- Degradation of C-MYC, combination with CRBN ligand 8049 [1]: √ (A black check mark indicates efficacy of 30% to 70% or higher protein degradation)

Compound: O=C(NCCNC(=O)c1ccccc1Nc1ccc([N+](=O)[O-])c2nonc12)c1ccc(O)c(O)c1 [MYC- N21]
- Degradation of C-MYC, combination with MDM2 ligand 8310 [1]: √ (A black check mark indicates efficacy of 30% to 70% or higher protein degradation)

Compound: O=C(NCc1ccc(B(O)O)cc1)c1cccc(Nc2ccc([N+](=O)[O-])c3nonc23)c1 [MYC- E09]
- Degradation of C-MYC, combination with CRBN ligand 8066 [1]: √ (A black check mark indicates efficacy of 30% to 70% or higher protein degradation)

Compound: CCNC(=O)C[C@@H]1N=C(c2ccc(Cl)cc2)c2cc(-c3ccc4cc(O)c(O)cc4c3)ccc2-n2c(C)nnc21 [BRD-N67]
- BRD4 degradation ([2]; BRD4 monomer alone, HeLa, 1-10 μM): there is no degradation of BRD4
- BRD4 degradation ([2]; co-treated 1:1 with CRBN ligand 8048, HeLa, 1-10 μM each): causes degradation of BRD4
- BRD4 degradation ([2]; co-treated 1:1 with CRBN ligand 8049, HeLa, 1-10 μM each): causes degradation of BRD4
- Degradation of BRD4, combination with CRBN ligand 8048 ([3]; Table 4, aromatic 1,2-diol BRD4 ligand + 8048): √ (A black check mark indicates efficacy of 30% to 70% or higher protein degradation)
- Degradation of BRD4, combination with CRBN ligand 8049 ([3]; Table 4, aromatic 1,2-diol BRD4 ligand + 8049): √ (A black check mark indicates efficacy of 30% to 70% or higher protein degradation)
